PMC4752462 (PLoS ONE, 2016)

What was measured:
CYP3A4 = details: cited from earlier work
human recombinant CYP3A4 = biological target: T1, human recombinant CYP3A4 (Homo sapiens, UniProt P08684); experiment: CYP3A4 inhibition, Vivid CYP450 blue screening kit with baculosomes; type: biochemical
T1 construct: purchased Life Technologies P2858; host or cells: baculosomes (baculovirus-infected insect cell microsomes)
Procedure: CYP3A4 inhibition assay was carried out by using Vivid® CYP450 Screening Kit from Life Technologies as recommended by the manufacturer (# P2858, Carlsbad, CA). This assay allows rapid measurement of interactions between drugs of interest and CYP enzymes based on their capability to inhibit the production of a fluorescent signal in reactions using CYP BACULOSOMES® Plus Reagents and specific Vivid® Substrates. Briefly, the assay was conducted in a 96-well assay plate. […] The final concentrations of 2.5, 5, 7.5, 10, 25, 50, 75, and 100 μM were achieved by diluting the stocks in 1X Vivid® CYP reaction buffer. […] For ethanol only experiment, 2.5, 5, […], 20, 30, and 50 mM final concentrations were used. The final concentration of acetonitrile in each reaction was 0.01% in 100 μl final reaction volume. The fluorescence was immediately measured using a microplate reader (Cytation™ 5 Cell Imaging Multi-Mode Reader, BioTek, VT) at the 415/460 nm excitation and emission wavelengths.
The concentrations of all the drugs were quantified using Ab Sciex Analyst® software. Microsomal kinetic data were analyzed using Michaelis-Menten and exponential decay equations. CYP3A4 inhibition data were evaluated by fitting the values to dose-response inhibition and calculated IC50 values were reported. All graphs were plotted and two-tailed t-tests were performed wherever appropriate using GraphPad Prism 5.01 (GraphPad, San Diego, CA). Significant differences between more than two groups analyzed with one-way ANOVA followed by Dunnett’s multiple comparison tests using IBM SPSS […] version 20. A p value <0.05 was considered significant compared to respective controls. The original data and/or statistical analyses for Michaelis-Menten Kinetics, drug metabolism and half-life determination, inhibition studies, and ligand docking are provided in the supporting information (S1 file).

T1 sequence (P08684 whole entry): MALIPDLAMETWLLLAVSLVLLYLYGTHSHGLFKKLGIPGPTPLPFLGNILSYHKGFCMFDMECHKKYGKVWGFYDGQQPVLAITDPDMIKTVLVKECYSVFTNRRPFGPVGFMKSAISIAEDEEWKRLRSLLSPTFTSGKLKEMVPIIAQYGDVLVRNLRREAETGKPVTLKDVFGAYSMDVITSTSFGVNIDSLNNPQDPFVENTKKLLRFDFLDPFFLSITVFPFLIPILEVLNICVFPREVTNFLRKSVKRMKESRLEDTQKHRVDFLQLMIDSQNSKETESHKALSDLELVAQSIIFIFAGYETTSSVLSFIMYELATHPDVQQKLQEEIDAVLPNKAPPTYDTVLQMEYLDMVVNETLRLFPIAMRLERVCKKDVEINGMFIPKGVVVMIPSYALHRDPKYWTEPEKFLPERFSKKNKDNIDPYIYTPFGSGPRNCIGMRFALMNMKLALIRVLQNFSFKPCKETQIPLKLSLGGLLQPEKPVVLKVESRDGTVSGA

Compound: CCO [EtOH, ethanol]
- CYP3A4 activity (Fig 5 inset) (human recombinant CYP3A4; EtOH 2.5 mM alone): 102.61
- CYP3A4 activity (Fig 5 inset) (human recombinant CYP3A4; EtOH 5 mM alone): 98.7735
- CYP3A4 activity (Fig 5 inset) (human recombinant CYP3A4; EtOH 10 mM alone): 93.5305
- CYP3A4 activity (Fig 5 inset) (human recombinant CYP3A4; EtOH 20 mM alone): 91.7899
- CYP3A4 activity (Fig 5 inset) (human recombinant CYP3A4; EtOH 30 mM alone): 86.4404
- CYP3A4 activity (Fig 5 inset) (human recombinant CYP3A4; EtOH 50 mM alone): 79.5554
- inhibition of CYP3A4 (human recombinant CYP3A4; ethanol only at 20 mM): ~ 10%

Compound: CC(C)CN(C[C@@H](O)[C@H](Cc1ccccc1)NC(=O)O[C@H]1CCOC1)S(=O)(=O)c1ccc(N)cc1 [amprenavir]
- effect of ethanol exposure on the IC50 value (CYP3A4): significantly decreased

Compound: Cc1c(O)cccc1C(=O)N[C@@H](CSc1ccccc1)[C@H](O)CN1C[C@H]2CCCC[C@H]2C[C@H]1C(=O)NC(C)(C)C [nelfinavir]
- effect of ethanol exposure on the IC50 value (CYP3A4): significantly decreased
